Entries after “also recorded” stand apart in the source; their conditions may differ.
Experiments:
[1] = target: RAF1 (a.k.a CRAF) (Homo sapiens, UniProt P04049); test: Global proteomics profiling, JURKAT cells; format: cell-based; set-up: endogenous in cells; host or cells: JURKAT, ATCC TIB-152 (A12.2); details: 300 nM, 24 hours
Method: (§1) Each cell line was treated in duplicate with either DMSO or Compound 157 (final concentration 300 nM) for 24 hours in an incubator at 37° C. with 5% CO2. After the 24-hour incubation, cells were harvested, washed twice with PBS, and snap frozen in liquid nitrogen. Samples were re-suspended in lysis buffer [8 M urea, 50 mM HEPES (pH 8.5), 50 mM NaCl, 1× protease inhibitor cocktail] and lysed by sonication at 4° C. with 85% amplitude in a pulse setting with 30 seconds on and 30 seconds off for a total sonication time of 5 minutes. Lysates were centrifuged at maximum speed for 10 minutes at 4° C. and the supernatant collected, reduced for 1 hour at room temperature with 5 mM TCEP, and the cysteine residues were then alkylated with 15 mM iodoacetamide (room temperature, in dark, 30 minutes). Protein content was extracted by methanol-chloroform precipitation and subsequent ice-cold acetone washes. Protein pellets were resuspended in 8 M urea, 50 mM HEPES (pH 8.5) buffer and protein concentrations were measured by BCA assay. […]
(§2) For peptide tandem mass tag (TMT) labeling, 100 μg of peptides per sample was prepared at […] concentration in 200 mM HEPES (pH 8.5), 30% acetonitrile (ACN) and each the specific TMT reagent. […] TMT reporter ion intensities were quantified by extracting the signal-to-noise ratio for each. […]

[2] = target: T1, BRAF V600E (Homo sapiens, UniProt P15056, V600E); test: Western blot of BRAF V600E levels in A375 cells; format: cell-based; set-up: host or cells: A375
T1 sequence (P15056 whole entry V600E): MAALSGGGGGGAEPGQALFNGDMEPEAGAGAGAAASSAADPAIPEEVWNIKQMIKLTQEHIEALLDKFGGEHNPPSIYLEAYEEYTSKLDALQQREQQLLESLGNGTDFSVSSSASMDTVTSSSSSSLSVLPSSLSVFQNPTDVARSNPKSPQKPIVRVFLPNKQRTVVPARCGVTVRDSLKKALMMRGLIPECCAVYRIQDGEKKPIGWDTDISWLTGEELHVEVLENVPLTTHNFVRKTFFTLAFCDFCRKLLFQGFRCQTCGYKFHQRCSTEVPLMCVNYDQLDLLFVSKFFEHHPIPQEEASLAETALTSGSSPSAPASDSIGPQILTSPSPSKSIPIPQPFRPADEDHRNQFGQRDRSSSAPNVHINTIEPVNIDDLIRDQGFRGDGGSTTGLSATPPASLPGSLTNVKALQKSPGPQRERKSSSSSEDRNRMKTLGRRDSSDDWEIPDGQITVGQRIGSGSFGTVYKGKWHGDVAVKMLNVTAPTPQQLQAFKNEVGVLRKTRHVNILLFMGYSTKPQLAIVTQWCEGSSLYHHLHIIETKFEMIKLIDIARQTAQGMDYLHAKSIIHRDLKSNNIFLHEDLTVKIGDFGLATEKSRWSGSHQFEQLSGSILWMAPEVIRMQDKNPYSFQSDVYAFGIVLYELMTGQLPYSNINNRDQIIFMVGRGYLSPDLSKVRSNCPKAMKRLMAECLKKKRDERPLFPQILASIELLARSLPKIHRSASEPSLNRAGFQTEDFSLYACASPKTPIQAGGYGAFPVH

[3] = test system: A375 cells expressing the oncogenic NRAS^Q61K mutation; test: Cellular growth over time of A375 cells expressing NRAS^Q61K; format: cell-based
[4] = Body weight change in the A375 xenograft study; format: in vivo, BALB/c nude mice; details: all doses, PO, A375 tumor-bearing mice
Method: The efficacy study was conducted in female BALB/c nude mice bearing A375 tumors. Female BALB/c nude mice were inoculated subcutaneously in the right flank with A375 tumor cells (5×10^6) in 0.2 mL of PBS supplemented with Matrigel (at a 1:1 ratio) for tumor development. Tumor volume was measured twice weekly in two dimensions using calipers, and volume (mm^3) was calculated using the formula: V=0.5 a×b^2 where a and b are the long and short diameters of the tumor in mm, respectively. Once the tumors reached an average tumor volume of 246 mm^3 (16 days after implantation), the animals were divided randomly into groups of 6, stratified to result in about equal average tumor sizes in each treatment group and treatment began on Day 0.
All agents were administered to mice bearing A375 tumors orally (PO), daily (QD; encorafenib), twice a day (BID) or three times a day (TID) for Compound 157, for 21 or 35 days. encorafenib was dosed at 35 mg/kg and Compound 157 at 0.1, 0.3, 1, 3 or 10 mg/kg twice a day or 2 mg/kg three times a day. Compound 157 was formulated in 20% PEG400+80% (25% SBECD). Body weight and MTV were measured on a 2× weekly schedule and reported as Mean±SEM.

[5] = target: T2, BRAF class II mutant G469A (Homo sapiens, UniProt P15056, G469A); test: Western blot of engineered HEK-293T cells expressing class II mutant G469A; format: cell-based; details: lentivirus expression
T2 construct: host or cells: HEK-293T, lentiviral expression
T2 sequence (P15056 whole entry G469A): as the sequence (P15056 whole entry V600E) above, with G469A, E600V counted along it

[6] = test system: ERK phosphorylation; test: Western blot of ERK phosphorylation in A375 cells expressing NRAS^Q61K; format: cell-based; details: 24 hours
[7] = target: T3, SALL4 (Homo sapiens, UniProt Q9UJQ4); test: SALL4 protein levels after treatment; format: cell-based; details: various concentrations
T3 construct: endogenously expressing SALL4 with HiBiT fusion tag via CRISPR; endogenous in cells; host or cells: KELLY.2 (from KELLY, DSMZ ACC-No. 355)
T3 sequence (Q9UJQ4 whole entry, the tested form may be a part): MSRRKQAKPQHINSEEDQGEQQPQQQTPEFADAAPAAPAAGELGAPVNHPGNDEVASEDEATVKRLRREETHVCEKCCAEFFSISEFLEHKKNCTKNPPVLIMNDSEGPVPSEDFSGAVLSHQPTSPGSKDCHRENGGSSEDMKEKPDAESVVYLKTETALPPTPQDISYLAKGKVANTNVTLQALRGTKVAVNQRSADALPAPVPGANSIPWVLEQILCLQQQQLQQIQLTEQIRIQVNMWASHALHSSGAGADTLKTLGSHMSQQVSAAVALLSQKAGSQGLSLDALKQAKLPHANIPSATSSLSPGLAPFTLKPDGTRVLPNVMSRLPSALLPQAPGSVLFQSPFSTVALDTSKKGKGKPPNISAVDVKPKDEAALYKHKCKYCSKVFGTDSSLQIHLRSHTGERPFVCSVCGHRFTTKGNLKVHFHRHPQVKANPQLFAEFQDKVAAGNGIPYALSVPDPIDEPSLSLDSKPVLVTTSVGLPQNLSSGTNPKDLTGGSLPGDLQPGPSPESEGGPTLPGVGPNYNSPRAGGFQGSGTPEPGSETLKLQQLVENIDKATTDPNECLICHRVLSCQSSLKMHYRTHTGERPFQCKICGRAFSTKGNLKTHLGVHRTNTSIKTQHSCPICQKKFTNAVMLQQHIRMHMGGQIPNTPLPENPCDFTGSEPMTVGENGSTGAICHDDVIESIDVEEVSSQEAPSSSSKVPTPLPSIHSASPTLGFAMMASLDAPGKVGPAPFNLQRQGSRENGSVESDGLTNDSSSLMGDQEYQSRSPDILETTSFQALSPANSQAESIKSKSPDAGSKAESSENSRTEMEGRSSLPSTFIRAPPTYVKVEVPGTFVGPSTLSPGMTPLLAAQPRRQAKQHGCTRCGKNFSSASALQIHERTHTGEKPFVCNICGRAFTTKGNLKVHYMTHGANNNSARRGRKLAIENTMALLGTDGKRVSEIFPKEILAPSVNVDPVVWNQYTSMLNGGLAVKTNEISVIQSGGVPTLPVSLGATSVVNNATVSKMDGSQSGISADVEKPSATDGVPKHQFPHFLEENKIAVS

[8] = target: T1, BRAF V600E; test: Global proteomics profiling, A375 cells; format: cell-based; set-up: endogenous in cells; host or cells: A375; details: 300 nM, 24 hours, compared to 300 nM dabrafenib treatment
Method: as §1, §2

Sequence of RAF1 (a.k.a CRAF) (P04049 whole entry): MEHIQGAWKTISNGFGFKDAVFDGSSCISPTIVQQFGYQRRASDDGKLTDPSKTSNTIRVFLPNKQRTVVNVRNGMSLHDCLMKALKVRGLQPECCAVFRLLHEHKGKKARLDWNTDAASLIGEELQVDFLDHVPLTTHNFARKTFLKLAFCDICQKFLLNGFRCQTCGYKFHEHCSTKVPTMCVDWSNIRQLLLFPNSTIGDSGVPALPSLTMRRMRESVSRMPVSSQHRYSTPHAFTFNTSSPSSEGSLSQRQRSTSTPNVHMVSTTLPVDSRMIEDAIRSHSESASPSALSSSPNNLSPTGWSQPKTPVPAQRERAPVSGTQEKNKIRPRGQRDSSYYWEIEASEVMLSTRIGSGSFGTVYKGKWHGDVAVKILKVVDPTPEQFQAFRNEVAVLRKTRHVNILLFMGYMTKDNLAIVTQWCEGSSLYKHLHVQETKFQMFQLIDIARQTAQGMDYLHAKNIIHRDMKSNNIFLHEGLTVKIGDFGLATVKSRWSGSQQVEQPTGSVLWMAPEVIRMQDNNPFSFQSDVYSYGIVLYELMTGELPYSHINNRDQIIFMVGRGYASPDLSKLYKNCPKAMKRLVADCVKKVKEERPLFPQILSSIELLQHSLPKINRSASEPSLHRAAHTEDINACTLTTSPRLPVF

## CCN(C)S(=O)(=O)Nc1ccc(F)c(Oc2ccc3ncn([C@H]4COC5(CCN(C(=O)CC6(O)CCN(c7cc8c(cc7F)c(N7CCC(=O)NC7=O)nn8C)CC6)CC5)C4)c(=O)c3c2)c1C#N [Compound 157, (3R)-3-[6-[2-cyano-3-[[ethyl(methyl)sulfamoyl]amino]-6-fluorophenoxy]-4-oxoquinazolin-3-yl]-8-[2-[1-[3-(2,4-dioxo-1,3-diazinan-1-yl)-5-fluoro-1-methylindazol-6-yl]-4-hydroxypiperidin-4-yl]acetyl]-1-oxa-8-azaspiro[4.5]decane]
[1]
  RAF1 (CRAF) protein level change: unchanged
[2]
  BRAF V600E levels: significantly decreased; also recorded: decrease in a dose dependent manner
[3]
  confluency: ≤ 50%
[4]
  Mean body weight loss throughout the study: ≤ 3.5%
[5]
  degradation of class II mutant G469A: capable of degrading
[6]; with 1 nM trametinib
  ERK phosphorylation, in combination with trametinib: completely suppressed
[6]; without trametinib
  ERK phosphorylation, alone: can suppress MAPK signaling
[7]
  SALL4 protein levels: steady
[8]
  BRAF^V600E protein remaining: 27%
